Results on seven substances are retold here after patent US20260191925A2, “TISSUE OCCLUDING AGENT COMPRISING AN IEIKIEIKIEIKI PEPTIDE” (3-D Matrix, Ltd., priority 2008, published 2026).

The test system of one data set is rabbit hepatic incision. In words: Rabbit hepatic transection model (Example 9). Type of data set: in vivo. The settings on record: 1% solution, 1 minute after treatment, after rinsing with physiological saline. The method, then: (§1) The rabbits were subcutaneously administered (3 mg/kg) Celactar 2% injection (2.0 g content as xylazine in 100 mL, product of Bayer Ltd.), and then ketamine (50 mg content as ketamine in 1 mL, product of Fuji Chemical Industries, Ltd.) was intravenously administered (10 mg/kg) for anesthesia.
The rabbits were laparotomized by median section and the hepatic left lobes were exposed and sharply transected with a scalpel to about 1 cm to induce hemorrhage.
After confirming exudative hemorrhage from the incision, the blood was removed as much as possible with gauze and the hepatic incision was treated with aqueous peptide solution.
The gelled aqueous peptide solution was removed 1 minute after treatment using physiological saline, and the presence of any hemorrhage from the hepatic incision was visually confirmed.

The nature of data set [1]: Self-assembly of aqueous peptide solution with rabbit bile (Example 10). Type of data set: physicochemical. The settings on record: covered with rabbit bile, approximately 30 seconds. Here is the method:
as §1
The rabbits were laparotomized by median section, and bile was sampled from the gallbladder using a 23 G injection needle (Terumo Corp.).
Droplets of each aqueous peptide solution before self-assembly were prepared (diameter: approximately 5-8 mm), and the sampled bile was gently poured thereover so as to cover the aqueous peptide solution.

In data set [2] the test system is rabbit portal vein stem. In words: Rabbit portal vein stem injection needle perforation model, sugar-containing solutions (Example 4). The class given is in vivo. Here is the method: as §1
(§2) The rabbits were laparotomized by median section. Approximately 10 cm of the abdominal aorta and portal vein stem was exposed, each blood vessel was ablated from the surrounding tissue, and the abdominal aorta was punctured with a 26 G, 25 G or 23 G injection needle (Terumo Corp.) while the portal vein stem was punctured with a 26 G injection needle (Terumo Corp.).
(§3) After 1-2 minutes of treatment, blood flow was released and the presence of hemorrhage was visually examined.

In data set [3] the test system is rabbit gastric mucosa incision. In words: Rabbit gastric mucosa incision model (Example 8). Type of data set: in vivo. The following applies: 1 minute after treatment, after rinsing with physiological saline. The method, then: as §1
The rabbits were laparotomized by median section and the stomachs were incised, after which the gastric mucosa was exposed and sharply incised with a scalpel to about 1 cm to induce hemorrhage.
After confirming blood oozing from the incision, the blood was removed as much as possible with gauze and the gastric mucosa incision was treated with aqueous peptide solution.
The gelled aqueous peptide solution was removed 1 minute after treatment using physiological saline, and the presence of any hemorrhage from the gastric mucosa incision was visually confirmed.

For data set [4], the system named is rabbit abdominal aorta. In words: Rabbit abdominal aorta injection needle perforation model (Example 1). The class given is in vivo. The settings on record: for hemostatic effect (hemorrhage visually examined): after release of clamp. Here is the method: as §1
(§4) The rabbits were laparotomized by median section. Approximately 10 cm of the abdominal aorta and portal vein stem was exposed, each blood vessel was ablated from the surrounding tissue, and the abdominal aorta was punctured with a 23 G injection needle (Terumo Corp.) while the portal vein stem was punctured with a 26 G injection needle (Terumo Corp.).
(§5) Upon confirming hemorrhage, blood flow at the peripheral end and central end was clamped with a hemostatic clamp, and after removing the hemorrhaged blood with physiological saline and gauze, it was immediately treated with the aqueous peptide solution.
(§6) After 1-2 minutes of treatment, blood flow was released and the presence of hemorrhage from the puncture site was visually examined.

Data set [5] relates to rabbit portal vein stem. In words: Rabbit portal vein stem injection needle perforation model (Example 1). The class given is in vivo. The method, then: as §1, §4, §5, §6
A further data set relates to resected liver surface. In words: Rabbit partial liver resection model (Example 2). Type of data set: in vivo. The settings on record: for hemorrhage from cut surface after rinsing with physiological saline: FIG. 2; for rabbits showing complete hemostasis: partial liver resection. The method, then:
as §1
The rabbits were laparotomized by median section, and the hepatic left or right lobe was sharply excised to a size of approximately 5 cm width×3 cm length from the edge using a scalpel, to prepare a liver section.
Blood flow was released 1-2 minutes after treatment, the aqueous peptide solution that was gelled was removed by physiological saline, and the presence of any hemorrhage from the resected liver surface s was visually confirmed.
The resected liver surface in which a hemostatic effect was seen were fixed with 20% formalin and histopathologically evaluated by HE staining.

Data set [6] has as its system abdominal aorta of rabbits with reduced blood clotting function. In words: Abdominal aorta injection needle perforation model of rabbits with suppressed blood clotting function (heparin) (Example 3). The settings on record: for Observations: heparin 1,000 units. The class given is in vivo, rabbit. The method, then:
as §1
The rabbits were laparotomized by median section. Approximately 10 cm of the abdominal aorta was exposed, the blood vessel was ablated from the surrounding tissue, and the vessel was punctured with a 26 G, 25 G or 23 G injection needle (Terumo Corp.).
Upon confirming hemorrhage, blood flow at the peripheral end and center end was clamped with a hemostatic clamp, and after removing the hemorrhaged blood with physiological saline and gauze, it was immediately treated with the aqueous peptide solution.
as §3

Data set [7] has as its system rabbit abdominal aorta. In words: Rabbit abdominal aorta injection needle perforation model, sugar-containing solutions (Example 4). The class given is in vivo. The method, then: as §1, §2, §3
In a further data set the test system is rabbit bile duct wall. In words: Rabbit bile duct injection needle perforation model (Example 6). Type of data set: in vivo. The following applies: 26 G needle. Here is the method:
as §1
The rabbits were laparotomized by median section. Approximately 10 cm of the bile duct was exposed, and after ablation from the surrounding tissue, the bile duct was punctured with a 26 G injection needle.
After confirming discharge of bile and continuous flow of bile, the bile flow was blocked with a hemostatic clamp.
The leaked bile was removed with physiological saline and gauze, and then treated with 3% aqueous peptide solution.
After 2 minutes of treatment, bile flow blockage was released and the presence of bile flow from the puncture site was visually examined.

The subject of data set [8] is canine intravesical tumor / vesical mucosa. In words: Canine intravesical tumorectomy, submucosal injection (Example 7). Type of data set: in vivo, dog. Here is the method: Canine intravesical tumorectomy was carried out under general anesthesia management, by the following procedure.
After hypogastric incision with an electrocautery scalpel (Erbe, Inc.), the electrocautery scalpel was used for incision of the bladder to expose the intravesical tumor (pedunculated tumor with a base site diameter of approximately 0.5 cm that is elevated from the vesical mucosa).
3% Aqueous peptide solution was submucosally injected around the tumor base in 4 injections of 0.5 mL each, and elevation of the tumor on the mucosa was confirmed.
After elevating the tumor, the tumor was excised with an electronic scalpel.
The time from aqueous peptide solution injection to complete tumor excision was approximately 2 minutes.

The next data set deals with rat portal vein. In words: Rat portal vein embolization (Example 11). Type of data set: in vivo. The settings on record: 4 mL injected through portal vein stem, liver extracted after 5 minutes, HE staining. Here is the method: The rats were subjected to inhalation anesthesia with diethyl ether (Kishida Chemical Co., Ltd.).
The rats were laparotomized by median section and the portal veins were exposed.
A 4 mL portion of aqueous peptide solution was injected through the portal vein stem with a 26 G injection needle (Terumo Corp.), and hemorrhage from the puncture site was immediately arrested with aqueous peptide solution.
The livers were extracted 5 minutes after injection and immediately fixed with 10% formalin (Wako Pure Chemical Industries, Ltd.).
The tissue was stained with haematoxylin eosin (HE) 1 week after fixing.

“Also recorded” adds a separate entry of the source. No end group written: not given here.

On to “1% IEIK9 aqueous peptide solution: 1% aqueous peptide solution, peptide sequence IEIK9 (SEQ ID NO: 4) (Ac-IEIKIEIKI)”, for which the “hemostatic effect (hemorrhage from hepatic incision)” value in the data set with rabbit hepatic incision is listed as “hemorrhage observed from incision site”; in the data set on rabbit hepatic incision (listed as IEIK9 aqueous peptide solution) it was “no hemostatic effect”. Further, the bile-induced self-assembly entry in data set [1] is given as “virtually no self-assembly seen”.

For “Ac-(IEIK)3I-CONH2 [1% IEIK13 aqueous peptide solution]”, the “hemostatic effect (hemorrhage from hepatic incision)” value in the data set with rabbit hepatic incision is “no hemorrhage observed from incision site”; in the data set on rabbit hepatic incision (listed as IEIK13 aqueous peptide solution) it was “no hemorrhage was observed”. Moreover, the bile-induced self-assembly entry in data set [1] is recorded as “self-assembly confirmed”.

As for “Ac-(KLDL)3-CONH2 (Ac-KLDLKLDLKLDL-NH2) [1% KLD aqueous peptide solution]”, the “hemostatic effect (hemorrhage from hepatic incision)” value in the data set with rabbit hepatic incision is reported as “no hemorrhage observed from incision site”; with rabbit hepatic incision (listed as KLD aqueous peptide solution) it was “no hemorrhage was observed”. Moreover, in data set [1], the bile-induced self-assembly result was “self-assembly confirmed”.

As to “Ac-(RADA)4-NH2 (Ac-RADARADARADARADA-NH2) [2% aqueous peptide solution]”, the “hemostatic effect (compared between the solutions)” value in the data set on rabbit portal vein stem [2] (portal vein stem 26 G needle perforation) is reported as “equivalent”. In the data set on rabbit portal vein stem [2] (portal vein stem, 26 G needle), the Observation entry is given as “Complete”. Further, the “hemorrhage from gastric mucosa incision” value in data set [3] is given as “no hemorrhage from incision site”.

In the case of “Ac-(RADA)4-NH2 [1% aqueous peptide solution] (Ac-RADARADARADARADA-NH2)”, the “hemostatic effect (hemorrhage visually examined)” value is “hemostasis was not complete; also recorded: resumed hemorrhage following declamp” with rabbit abdominal aorta [4] and “persistent phleborrhagia” in the data set on rabbit portal vein stem [5]. The “hemorrhage from cut surface after rinsing with physiological saline” value in the data set with resected liver surface is on record as “no hemorrhage observed from cut surface”. For the same substance, the “rabbits showing complete hemostasis” value in the data set on resected liver surface is “two of two”.

On to “Ac-(RADA)4-NH2 [1.5% PuraMatrix aqueous peptide solution]”, for which, in [1], the bile-induced self-assembly result is “self-assembly confirmed”.

Turning to “Ac-(RADA)4-NH2 [3% aqueous peptide solution] (Ac-RADARADARADARADA-NH2)”, in the data set on rabbit abdominal aorta [4], the “rabbits demonstrating complete hemostasis” value is given as “two of two”. Besides, the “hemostatic effect (hemorrhage visually examined)” value with rabbit abdominal aorta [4] is given as “completely hemorrhage-arrested blood vessel”; in data set [6] (heparin-treated rabbits, 26 G, 25 G and 23 G needle perforation), “complete hemostasis; also recorded: perivascular hemorrhage of (b) not seen after declamp”. The “cases demonstrating complete hemostasis” value with rabbit portal vein stem [5] was “two of two”. For the same substance, the “hemorrhage from cut surface after rinsing with physiological saline” value in the data set with resected liver surface was “hemorrhage observed from cut surface”. For the same substance, the “rabbits showing complete hemostasis” value with resected liver surface is recorded as 1 of 4. Besides, the Observations result is “Complete hemostasis” in data set [6] (23 G needle), “Complete hemostasis” in data set [6] (25 G needle), “Complete hemostasis” in data set [6] (26 G needle) and “Aqueous peptide solution gelled” in the data set with rabbit bile duct wall. The Observation result in the data set on rabbit abdominal aorta [7] (23 G needle), in the data set with rabbit abdominal aorta [7] (25 G needle) and in the data set with rabbit abdominal aorta [7] (26 G needle) was “Complete” throughout. For the same substance, the “bile duct wall occlusion effect (bile leakage)” value in the data set with rabbit bile duct wall is reported as “complete bile duct wall occlusion effect; also recorded: bile leakage of (b) not observed around bile duct”. Besides, the “hemorrhage at excision site after tumor excision” value in data set [8] (excision by electrocautery) is “no hemorrhage at excision site after tumor excision”. In addition, in [8] (excision by electrocautery), the “hemorrhage at excision site during tumor excision” value was “no hemorrhage at excision site during tumor excision”. For the same substance, the “mucosal swelling (elevation) of excision site” value in data set [8] (submucosal injection, 4 injections of 0.5 mL) is recorded as “swelling of affected area confirmed”. For the same substance, the portal vein embolization result in the data set with rat portal vein was “Embolization of portal vein confirmed”.
